One assay concerns the target CpPstS. The assay can be described thus: MST-binding assay of CpPstS. Set-up: species or system Candidatus Pelagibacter sp. HTCC7211. Particulars: 25°C. The method, then: To analyze the binding affinity of CpPstS to phosphate, the microscale thermophoresis (MST)-binding assay was performed using the Monolith NT.115 instrument (NanoTemper Technologies GmbH). Based on previous studies showing that SAR11_1179 has a high binding affinity to phosphate ([33]), we purified the CpPstS protein under denaturing conditions and refolded it for the MST assay. […]. The high-affinity phosphate-binding affinity of CpPstS is consistent with that previously reported for SAR11_1179 ([33]). To further investigate the molecular mechanism underlying the high-affinity phosphate binding of CpPstS, we subsequently conducted structural biology studies on CpPstS.
Previous studies have shown that PstSCAB specifically transports inorganic phosphate ([10], [41], [42]). […] We therefore speculate that the larger substrate-binding cavity of CpPstS may allow it to bind to both phosphate and larger organic phosphorus compounds. To test this hypothesis, we conducted an MST-binding assay. […] […].
Using primers CppstS-F/CppstS-R, the CppstS gene was PCR amplified from the Candidatus Pelagibacter sp. HTCC7211 strain and inserted into the NdeI/XhoI restriction sites of the pET-22b vector containing a C-terminal His-tag (Table S3). The CpPstS and the selenomethionine (SeMet) derivative of CpPstS were expressed in E. coli BL21(DE3) cells under different culture conditions. For CpPstS protein expression for MST-binding assay, cells were cultured at 37°C in LB medium supplemented with 100 µg/mL ampicillin to an OD600 of 0.8–1.0, and induction was initiated with 0.35 mM isopropyl-β-D-thiogalactopyranoside (IPTG) at 15°C for 16 hours. For SeMet-CpPstS protein expression for crystallization, the SeMet-CpPstS protein was overexpressed in E. coli BL21(DE3) using M9 minimal medium supplemented with selenomethionine, lysine, leucine, valine, isoleucine, threonine, and phenylalanine ([50]). The overexpression was induced with 0.35 mM IPTG at 15°C for 16 hours. The purification of CpPstS for MST-binding assay was under denaturing conditions, cultured E. coli BL21(DE3) cells were collected by centrifugation, resuspended in lysis buffer (40 mM Tris-HCl [pH 8.0], 200 mM NaCl, 5% [vol/vol] glycerol, 2 mM EDTA, and 0.1 mM phenylmethanesulfonyl fluoride), and fractured by pressure crusher (JNBIO, China). The CpPstS protein was first purified by affinity chromatography on a Ni^2+-NTA column (Qiagen, Germany), washed with denaturing Ni binding buffer (8 M urea, 20 mM Tris, 250 mM NaCl, and 20 mM imidazole, pH 8.0) and eluted with denaturing Ni elution buffer (8 M urea, 20 mM Tris, 250 mM NaCl, and 250 mM imidazole, pH 8.0). […]
MST technology was used to quantify the binding affinities of NaH₂PO₄, Mpn, Glycerol-3P, and Glucose-6P to CpPstS. […]

Assay [1] addresses Synechococcus sp. WH8102 PstS1b. Particulars: read-out: Kd of PstS1b for phosphate; cited from earlier work.
Assay [2] has as its target Synechococcus sp. WH8102 PstS1a. Particulars: read-out: Kd of PstS1a for phosphate; cited from earlier work.
The target in assay [3] is Synechococcus sp. WH8102 PstS2. Particulars: read-out: Kd of PstS2 for phosphate; cited from earlier work.
[4] abbreviates: 40 mM MES pH 7.2, 0.005% Tween-20, read-out: Kd of CpPstS for organic phosphorus compounds.

Read-outs that look alike come from different tables or passages of the source.

One may read the Kd as the constant that tells how readily two partners part at equilibrium.

Turning to `O=C[C@H](O)[C@@H](O)[C@H](O)[C@H](O)COP(=O)(O)O` [glucose-6-phosphate], the Kd on CpPstS (setting [4]) came to 668 ± 253 µM.

`O=P(O)(O)OCC(O)CO` (stereo not shown) [glycerol-3-phosphate]: the Kd on CpPstS (setting [4]) is 105 ± 44.6 µM.

As for phosphate, the Kd at CpPstS (refolded CpPstS, 40 mM MES pH 7.2, 0.005% Tween-20, NaH2PO4 titrated from 1.53 nM to 50 µM, listed as NaH2PO4, read-out: Kd (dissociation constant) of CpPstS for phosphate) was 0.112 ± 0.0805 µM; at CpPstS (refolded CpPstS, 40 mM MES pH 7.2, 0.005% Tween-20, NaH2PO4 titrated from 1.53 nM to 50 µM, read-out: Kd (dissociation constant) of CpPstS for phosphate) it was 0.112 µM; in assay [1], 0.44 µM; in assay [2] it was 3.3 µM; in assay [3], 4.3 µM.

The values are drawn from publication PMC12421899, “Structural and molecular basis for phosphate recognition by SAR11 bacteria” (mBio, 2025).
